# Results taken from paper PMC3564010, “Exposure to Acetylcholinesterase Inhibitors Alters the Physiology and Motor Function of Honeybees” (Frontiers in Physiology, 2013).
# Test system: T1, AChE (honeybee gut lysate)
# T1 construct: gene AChE-1; total AChE activity
# Experiment: Ellman assay, […] nm, Hill fit
# Assay type: biochemical, Apis mellifera mellifera
# Conditions: gut homogenate; […] min incubation; […] acetylthiocholine iodide, […] DTNB; PBS
structure (smiles),measurement,value
COc1cc2c(cc1OC)C(=O)C(CC1CCN(Cc3ccccc3)CC1)C2 (stereo not shown) [Donepezil],IC50,115 ± 5.86 nM
